Source: article PMC8999917, “Structure–Activity Relationship of Synthetic Ginkgolic Acid Analogs for Treating Type 2 Diabetes by PTPN9 Inhibition” (International Journal of Molecular Sciences, 2022)

Tests used:
[1] = biological target: T1, DUSP9 (Homo sapiens, UniProt Q99956); experiment: DUSP9 enzyme inhibition with DiFMUP substrate; type: biochemical; conditions: DiFMUP 90 µM, DUSP9 200 nM; NA: no activity
T1 construct: made in house; host or cells: Escherichia coli Rosetta (DE3)
T1 sequence (Q99956 1-384): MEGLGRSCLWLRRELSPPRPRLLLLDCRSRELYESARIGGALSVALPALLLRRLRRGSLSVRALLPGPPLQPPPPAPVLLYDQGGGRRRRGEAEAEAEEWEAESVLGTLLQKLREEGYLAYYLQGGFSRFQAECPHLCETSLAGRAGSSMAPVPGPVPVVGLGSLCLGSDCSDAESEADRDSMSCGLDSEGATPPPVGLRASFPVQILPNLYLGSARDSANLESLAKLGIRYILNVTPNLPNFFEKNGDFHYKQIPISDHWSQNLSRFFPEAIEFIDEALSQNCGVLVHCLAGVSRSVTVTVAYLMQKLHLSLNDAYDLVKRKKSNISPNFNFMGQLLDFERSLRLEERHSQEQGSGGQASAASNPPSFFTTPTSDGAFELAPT
Experimental: (§1) The purification and kinetic analyses of PTPN9 and DUSP9 (Ser277–581) were performed following methods described in the literature, with slight modifications. PAGE analysis data and enzyme kinetic constants are presented in Figure S1 and Table S1, respectively. Enzyme activity in the presence or absence of the compounds was measured using DiFMUP, a representative PTP fluorogenic substrate. First, the inhibitory effects of compounds 1–3 were evaluated using 50 µM PTPN9 and 20 µM DUSP9. There was an increase in the inhibitory activity of compound 1 for both enzymes as the number of CH2 units increased from 9 to 14 (Figure 2A,B).
(§2) Next, the IC50 values of the compounds, which induce a 50% inhibition of DiFMUP hydrolytic enzyme activity, were determined (Table 1). The IC50 values were determined from the dose–response enzyme inhibition curves of each compound. The dose–response curves for compounds 1e and 1f against PTPN9 and DUSP9, respectively, are presented in Figure 2C,D. Dose–response curves were also obtained for the other compounds (Figures S2 and S3).
(§3) The methods employed for PTP overexpression and purification have been described in a previous study. In brief, human PTPN9 and DUSP9 were cloned into a pET28a vector (Merk Millipore, Darmstadt, Germany) containing a hexahistidine (His6) tag or a maltose-binding protein (MBP) tag in its N-terminus (see Supplementary Materials). Recombinant genes were separately transformed into Escherichia coli Rosetta (DE3) (Merk Millipore, Darmstadt, Germany), and the overexpression of each gene was induced via the addition of 0.1 mM IPTG (Ducherfa Biochemie, Haarlem, RV, USA). After 16 h of incubation at 18 °C, cell pellets were obtained via centrifugation (3570× g at 4 °C for 15 min), resuspended in lysis buffer (50 mM Tris, pH: 7.5, 500 mM NaCl, 5% glycerol, 0.025% 2-mercaptoethanol, and 1 mM phenyl-methylsulfonyl fluoride (PMSF)), and lysed by ultrasonication. Subsequently, cell lysates were centrifuged at 29,820× g for 30 min at 4 °C; then, the supernatant was collected and incubated with a cobalt affinity resin (TALON® Metal Affinity Resin, Takara Korea, Seoul, Korea). After 1 h of incubation at 4 °C, the desired proteins were eluted by adding the lysis buffer supplemented with 100 mM imidazole. Samples were stored at –80 °C until use.
(§4) The enzymatic activities of purified PTPN9 and DUSP9 were measured using 6,8-difluoro-4-methylumbelliferyl phosphate (DiFMUP), the most widely used fluorogenic PTP substrate in the literature. To determine KM values, PTPN9 (0.15 nM) and DUSP9 (200 nM) were added to a reaction buffer (20 mM Bis-tris, pH: 7.0, 150 mM NaCl, 2.5 mM dithiothreitol (DTT), and 0.01% Triton X-100) containing DiFMUP (800, 400, 200, 100, 50, 25, 12.5, or 6.25 μM) in a 96-well black plate. The final reaction volume was 100 µL. The fluorescence intensity was continuously monitored for 10 min (Ex/Em = 355/460 nm) on a Victor™ X4 multilabel plate reader (Perkin Elmer, Norwalk, CT, USA). KM values were obtained using Lineweaver–Burk plots analysis.
(§5) To evaluate the enzyme inhibitory effects of GA and its analogs, 10 µl of the enzyme stock solution (1.5 nM PTPN9 and 2 µM DUSP9) in the reaction buffer was added into the mixture of DiFMUP (to a final concentration of 220 µM and 90 µM for PTPN9 and DUSP9, respectively) and each compound (to a final concentration of 50 µM and 20 µM for PTPN9 and DUSP9, respectively) was added to the reaction buffer. Enzyme activity was measured as described above. Half-inhibitory concentration (IC50) values were determined under similar conditions, except for the concentrations of the inhibitors (200, 100, 50, 25, 12.5, 6.25, or 3.125 µM for PTPN9 and 25, 12.5, 6.25, 3.125, 1.563, 0.782, or 0.391 µM for DUSP9). The dose-dependent curve was fitted to the four-parameter logistic regression equation, (y = a + (b – a)/(1 + (x/c)^d), to obtain IC50 values using the Kaleida Graph software Ver. 4.1.3. (Synergy Software Inc, PA, USA).

[2] = biological target: T2, PTPN9 (Homo sapiens, UniProt P43378); experiment: PTPN9 enzyme inhibition with DiFMUP substrate; type: biochemical; conditions: DiFMUP 220 µM, PTPN9 0.15 nM; NA: no activity
T2 construct: made in house; host or cells: Escherichia coli Rosetta (DE3)
T2 sequence (P43378 277-581): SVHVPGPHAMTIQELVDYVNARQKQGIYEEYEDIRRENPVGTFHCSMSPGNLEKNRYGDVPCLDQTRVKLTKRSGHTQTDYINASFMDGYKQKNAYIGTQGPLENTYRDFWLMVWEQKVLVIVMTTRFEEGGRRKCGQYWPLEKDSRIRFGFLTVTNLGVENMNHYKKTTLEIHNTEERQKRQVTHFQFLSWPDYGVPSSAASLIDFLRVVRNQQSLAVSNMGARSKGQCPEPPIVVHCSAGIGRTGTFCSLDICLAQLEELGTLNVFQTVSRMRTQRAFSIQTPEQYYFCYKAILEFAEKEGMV
Experimental: as §1, §2, §3, §4, §5

[3] = system: 3T3-L1 adipocytes; experiment: 2-NBDG glucose uptake assay in differentiated 3T3-L1 adipocytes; type: cell-based, mouse; conditions: 100 nM
Experimental: PTPN9 inhibitors have been reported to increase glucose uptake. To clarify the antidiabetic effects of GA analogs, a 2-NBDG (a fluorescent glucose probe) uptake assay was performed using differentiated 3T3-L1 adipocytes and C2C12 myotubes. After 16 h of starvation, differentiated 3T3-L1 adipocytes were incubated with compounds 1e and 1f for another 1 h. The cells were subsequently incubated with 2-NBDG for 30 min and washed with PBS before quantifying the fluorescence of 2-NBDG taken up by the cells. The 2-NBDG uptake-increasing effects of GA and its analogs in 3T3-L1 cells were monitored via confocal microscopy. The blank group was set in the absence of 2-NBDG but was treated with DMSO to determine the basal fluorescence levels in 3T3-L1 adipocytes (Figure 4A, Basal); in the negative control group, 3T3-L1 adipocytes were treated with 2-NBDG and DMSO for the evaluation of basal glucose uptake levels (Figure 4A, DMSO). […] Furthermore, to quantify 2-NBDG uptake, fluorescence intensity (Ex/Em = 485/535 nm) was measured using a plate reader. […] After incubation, the cells were washed with pre-cold PBS, and the fluorescence intensity was measured using a fluorescence microplate reader (Victor^TM X4, PerkinElmer, Waltham, MA, USA) (Ex/Em = 485/535 nm). […]

[4] = biological target: T1, DUSP9; experiment: Kinetics of DiFMUP hydrolysis by DUSP9; type: biochemical; conditions: [E] 200.0 nM
Experimental: (§6) The purification and kinetic analyses of PTPN9 and DUSP9 (Ser277–581) were performed following methods described in the literature, with slight modifications. […] Enzyme activity in the presence or absence of the compounds was measured using DiFMUP, a representative PTP fluorogenic substrate.
as §4

[5] = biological target: T2, PTPN9; experiment: Kinetics of DiFMUP hydrolysis by PTPN9; type: biochemical; conditions: [E] 0.15 nM
Experimental: as §6, §4

Row | IC50 [1] | IC50 [2] | Compound | further results
1 | 5.27 ± 0.07 µM | 69.3 ± 6.22 µM | CCCCCCCCCCCCCOc1ccc(C(=O)O)c(O)c1 [Compound 2] | –
2 | 4.68 ± 0.06 µM | 36.5 ± 1 µM | CCCCCCCCCCCCCOc1ccc(O)c(C(=O)O)c1 [Compound 3] | –
3 | 8.61 ± 0.66 µM | 28.54 ± 0.1 µM | CCCCCCCCCCCCOc1cccc(O)c1C(=O)O [Compound 1d] | –
4 | – | – | Insulin: positive control (100 nM) in the 2-NBDG uptake assay | 2-NBDG uptake (positive control) [3]: significantly stimulated 2-NBDG uptake
5 | 23.9 ± 0.65 µM | 77.1 ± 0.78 µM | CCCCCCCCCCCOc1cccc(O)c1C(=O)O [Compound 1c] | –
6 | – | – | Cc1cc(=O)oc2c(F)c(OP(=O)(O)O)c(F)cc12 [DiFMUP, 6,8-difluoro-4-methylumbelliferyl phosphate] | Km [4]: 45 µM; Vmax [4]: 1.65 μMmin-1; kcat [4]: 8.25 min⁻¹; Km [5]: 110 µM; Vmax [5]: 1.73 μMmin-1
